Source: US20070060639A1, “Compositions and methods for intranasal delivery of tricyclic cannabinoids” (University of Kentucky, priority 2005, published 2007)
Like-named read-outs stand apart in the source and are kept apart here.

Key:
[1] = intranasally at 1.14-1.33 mg/kg, rat model, period from 15 to 120 minutes after administration; cited from earlier work
[2] = rat; for F: F = (AUCIN × DoseIV)/(AUCIV × DoseIN); for concentration at 0 minutes / concentration at 0.5 minutes / concentration at 5 minutes / concentration at 15 minutes / concentration at 30 minutes / concentration at 60 minutes / concentration at 120 minutes / concentration at 160 minutes / concentration at 240 minutes / concentration at 300 minutes / concentration at 360 minutes / concentration at 420 minutes / concentration at 480 minutes: Mean plasma concentration of THC
[3] = male, Sprague-Dawley, plasma, inhaled or intranasal, 9.84 mg/kg
[4] = male, Sprague-Dawley, plasma, inhaled or intranasal, 9.91 mg/kg
[5] = male, Sprague-Dawley, plasma, iv, 0.99 mg/kg
[6] = male, Sprague-Dawley, plasma, iv, 1 mg/kg, Intravenous (1 mg/kg), propylene glycol, n = 3, rat
[7] = male, Sprague-Dawley, plasma, other: intranasal, 10 mg/kg, Intranasal (10 mg/kg), 90:10 propylene glycol/ethanol, n = 5, rat
[8] = male, Sprague-Dawley, plasma, other: intranasal, 10 mg/kg, Intranasal (10 mg/kg), propylene glycol, n = 3, rat

## CCCCCc1cc(O)c2c(c1)OC(C)(C)[C@@H]1CCC(C)=C[C@@H]21 [THC, delta-9-tetrahydrocannabinol]
[1]
  analgesic response: an analgesic response was observed
[2]; Intranasal (IN), 90:10 propylene glycol/ethanol, 9.91 mg/kg
  F: 0.138
[2]; Intranasal (IN), propylene glycol, 9.84 mg/kg
  F: 0.136
[2]; Intravenous (IV), propylene glycol, 0.99 mg/kg
  F: 1
[2]; [3]
  AUC: 428 ng·h/mL
  Cmax: 55 ng/mL
  Tmax: 3 h
[2]; [4]
  AUC: 434 ng·h/mL
  Cmax: 75 ng/mL
  Tmax: 2 h
[2]; [5]
  AUC: 314 ng·h/mL
  Cmax: 693 ng/mL
  Tmax: 0.0083 h
[2]; [6]
  concentration at 0 minutes: 0 ng/mL
  concentration at 0.5 minutes: 693 ng/mL
  concentration at 5 minutes: 136 ng/mL
  concentration at 15 minutes: 73 ng/mL
  concentration at 30 minutes: 48 ng/mL
  concentration at 60 minutes: 34 ng/mL
  concentration at 120 minutes: 24 ng/mL
  concentration at 160 minutes: 23 ng/mL
  concentration at 240 minutes: 21 ng/mL
  concentration at 300 minutes: 18 ng/mL
  concentration at 360 minutes: 22 ng/mL
  concentration at 420 minutes: 25 ng/mL
  concentration at 480 minutes: 12 ng/mL
[2]; male, Sprague-Dawley, plasma, other: intranasal, 10 mg/kg
  bioavailability: ~14%
[2]; [7]
  concentration at 0 minutes: 0 ng/mL
  concentration at 0.5 minutes: 0 ng/mL
  concentration at 5 minutes: 0 ng/mL
  concentration at 15 minutes: 24 ng/mL
  concentration at 30 minutes: 43 ng/mL
  concentration at 60 minutes: 59 ng/mL
  concentration at 120 minutes: 75 ng/mL
  concentration at 160 minutes: 54 ng/mL
  concentration at 240 minutes: 24 ng/mL
  concentration at 300 minutes: 20 ng/mL
  concentration at 360 minutes: 19 ng/mL
  concentration at 420 minutes: 16 ng/mL
  concentration at 480 minutes: 11 ng/mL
[2]; [8]
  concentration at 0 minutes: 0 ng/mL
  concentration at 0.5 minutes: 0 ng/mL
  concentration at 5 minutes: 0 ng/mL
  concentration at 15 minutes: 3 ng/mL
  concentration at 30 minutes: 13 ng/mL
  concentration at 60 minutes: 26 ng/mL
  concentration at 120 minutes: 38 ng/mL
  concentration at 160 minutes: 36 ng/mL
  concentration at 240 minutes: 51 ng/mL
  concentration at 300 minutes: 19 ng/mL
  concentration at 360 minutes: 17 ng/mL
  concentration at 420 minutes: 16 ng/mL
  concentration at 480 minutes: 16 ng/mL
